How the values were obtained:
Assay type in all cases: cell-based
PCEC = experiment: MTS assay on Pentablock Polymer B, PCEC; conditions: Triton X positive control
Experimental: Pentablock Polymer B: Cytotoxicity for Pentablock Polymer B was performed at different concentration ranging from 0.5-10 mg/ml. The plates were seeded with cell density of 10,000 cells/100 μL. After 24 hours of incubation fresh medium containing hydrogel of different concentration ranging from 0.5-10 mg/ml were added and further incubated for 24 hours. MTS assay is based on the reduction of the tetrazolium salt (yellow) to fromazone (purple) by mitochondrial enzymes of metabolic active cells. The amount of the fromazone is directly proportional to viable cells. In MTS assay Trioton X treated cells were served as […]. […] After incubation, the absorbance of each well was measured at 450 nm by ELISA plate reader. The absorbance is directly proportional to viability of cells.

[1] = test system: RAW 264.7 (mouse macrophage cell line); experiment: MTS assay on Pentablock Polymer A, RAW 264.7; conditions: RAW 264.7, Triton X positive control
Experimental: (§1) The cytotoxicity and biocompatibility of the Pentablock Polymer A and Pentablock Polymer B were investigated in several cell lines. ARPE-19 (human retinal pigment epithelial cell line), SIRC (rabbit corneal cell line), and RAW 264.7 (mouse macrophage cell line) were obtained from American Type Culture Collection (“ATCC”). ARPE-19 cells were cultured in Dubelcco's modified Eagle's medium (“DMEM/F12”) supplemented with 10% fetal bovine serum (“FBS”), 100 U/mL penicillin and 100 μg/mL of streptomycin. SIRC cells were cultured in minimum essential medium (“MEM”) and supplemented with 10% FBS, 100 U/mL of penicillin and 100 μg/mL of streptomycin. RAW 264.7 (Mouse macrophage cells) cells were cultured in DMEM/F12supplemented with 10% FBS, 10% of nonessential amino acids, 100 U/mL penicillin and 100 μg/mL of streptomycin. The pH of the medium was adjusted to 7.4 and cells were incubated in humidified atmosphere at 37° C. temperature with 5% CO2 environment. The cell cultures were exposed directly to different concentrations of Pentablock Polymer A and Pentablock Polymer B. […]
(§2) MTS assay is based on the reduction of the tetrazolium salt (yellow) to fromazone (purple) by mitochondrial enzymes of metabolic active cells. […] After incubation, the absorbance of each well was measured at 450 nm by ELISA plate reader. The absorbance is directly proportional to viability of cells.

[2] = test system: SIRC (rabbit corneal cell line); experiment: MTS assay on Pentablock Polymer A, SIRC; conditions: Triton X positive control
Experimental: as §1, §2

[3] = test system: ARPE-19 (human retinal pigment epithelial cell line); experiment: MTS assay on Pentablock Polymer B, ARPE 19; conditions: ARPE 19, Triton X positive control
Experimental: The cytotoxicity and biocompatibility of the Pentablock Polymer A and Pentablock Polymer B were investigated in several cell lines. ARPE-19 (human retinal pigment epithelial cell line), SIRC (rabbit corneal cell line), and RAW 264.7 (mouse macrophage cell line) were obtained from American Type Culture Collection (“ATCC”). ARPE-19 cells were cultured in Dubelcco's modified Eagle's medium (“DMEM/F12”) supplemented with 10% fetal bovine serum (“FBS”), 100 U/mL penicillin and 100 μg/mL of streptomycin. SIRC cells were cultured in minimum essential medium (“MEM”) and supplemented with 10% FBS, 100 U/mL of penicillin and 100 μg/mL of streptomycin. RAW 264.7 (Mouse macrophage cells) cells were cultured in DMEM/[…] with 10% FBS, 10% of nonessential amino acids, 100 U/mL penicillin and 100 μg/mL of streptomycin. […] The cell cultures were exposed directly to different concentrations of Pentablock Polymer A and Pentablock Polymer B. Pentablock Polymer B: Cytotoxicity for Pentablock Polymer B was performed at different concentration ranging from 0.5-10 mg/ml. The plates were seeded with cell density of 10,000 cells/100 μL. […] After incubation, the absorbance of each well was measured at 450 nm by ELISA plate reader. The absorbance is directly proportional to viability of cells.

Substance: Triton X
- MTS assay (absorbance proportional to viability of cells) (PCEC): 0.000
- MTS assay (absorbance proportional to viability of cells) [1]: 0
- MTS assay (absorbance proportional to viability of cells) [2]: 0
- MTS assay (absorbance proportional to viability of cells) [3]: 0.000

— patent US9011927B2, “Pentablock polymers” (The Curators of the University of Missouri, priority 2010, dated 2015)
